Tests used:
Hepa1-6 cells = assay: Cell proliferation (CCK-8) with medium from treated neutrophils; assay type: cell-based, mouse; details: CCK-8, medium from activated neutrophils treated with NPs; versus Control and NFTP-NPs groups
Protocol: Submitted to Advanced Science
Freshly isolated neutrophils were stimulated with PBS, PMA, PMA+NFTP-NPs, PMA+FTP-NPs, and PMA+NEi for 4 h to stimulate NETs formation. Cells were then centrifuged at 480g for 10 minutes. The supernatant (NETs rich media) was then centrifuged at 18000g for 15 mins to form a pellet. The obtained pellet contained the mixture of chromatins and proteins, which was then resuspended in cell culture media to treat cancer cells, which was collected and respectively named as resting neutrophils, Control, NFTP-NPs, FTP-NPs, and NEi, then stored at -80◦C for further use.
Resting neutrophils (Neu)-treated, Control (Neu+PMA)-treated, NFTP-NPs (Neu+PMA+NFTP-NPs)-treated, FTP-NPs (Neu+PMA+FTP-NPs)-treated, and NEi (Neu+PMA+NEi)-treated Hepa1-6/luc cells and Hepa1-6/luc cells (2×10^3cells/well) were seeded on 96-well plates. Cell proliferation was assessed using the Cell Counting Kit-8 (Biosharp, China) following the manufacturer’s instructions. The final optical density (OD) value was measured daily for 3 consecutive days using a microplate reader at 450 nm (Tecan Infinite M200, Switzerland). Each condition was performed in triplicate. […]

NE protein = molecular target: T1, NE protein (Homo sapiens, UniProt P08246); assay: Transformation kinetics by PpIX fluorescence after addition of NE protein; assay type: physicochemical; details: 24 h incubation, NE protein/peptide ligand about 1/1000, emission about 635 nm
T1 construct: purchased AkrivisBio MA-0156
T1 sequence (P08246 30-267): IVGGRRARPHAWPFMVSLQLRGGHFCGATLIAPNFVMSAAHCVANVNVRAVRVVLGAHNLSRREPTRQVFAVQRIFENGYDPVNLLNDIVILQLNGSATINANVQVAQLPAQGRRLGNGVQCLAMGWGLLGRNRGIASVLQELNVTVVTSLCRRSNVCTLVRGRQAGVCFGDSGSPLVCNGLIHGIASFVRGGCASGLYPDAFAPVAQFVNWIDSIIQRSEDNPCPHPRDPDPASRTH
Protocol: Submitted to Advanced Science temperature. Following the incubation, 10 µL of the solution was added to a copper mesh at 0 and 24 h. Filter paper was used to remove any extra droplets after an overnight stay. The samples were then stained for five minutes with uranyl acetate and then rinsed for one minute with water (10 µL). Finally, dried samples were observed by TEM (Talos 120C, Thermo Fisher Scientific, USA). DLS (Zetasizer Nano ZS, UK) was used to assess the solution for hydrodynamic size and zeta potential at 0 and 24 h following the incubation. Then, the nanofiber structure at 0 h and 24 h after incubation of FTP-NPs was examined with Circular Dichroism (CD) Spectra (Chirascan, UM, Britain). In addition, the variation of fluorescence emission spectra of PpIX by […]
transformation of FTP-NPs.
Pyrene molecules were employed as an indicator to determine the critical aggregation concentration (CAC) of nanoparticles by comparing the fluorescence of their third and first emissive peaks. […] The fluorescence spectra of pyrene (excitation, 335 nm) in different NPs dilutions were recorded. The fluorescence intensity ratio (I3/I1) of the third and first emissive peaks was measured for CAC calculation. […]

PpIX-GFFVLK-EAIPMSIPPEVK [FTP-NPs]
proliferation rate of Hepa1-6 cells (Hepa1-6 cells): much lower | fluorescence intensity of PpIX after addition of NE protein (NE protein): 78.3%

Reference: article PMC12767106, “In Situ Assembly of Transformable Monopeptide on Activated Neutrophils Attenuates NETs‐Induced Hepatocellular Carcinoma Metastasis by Disrupting NE Nuclear Translocation” (Advanced Science, 2025)
